The source of these data is ChEMBL document CHEMBL5096143, “Current status in the discovery of dual BET/HDAC inhibitors” (Bioorg Med Chem Lett, 2021).

The target in experiment [1] is T1, Bromodomain-containing protein 4 (Homo sapiens, UniProt O60885). The experiment can be described thus: Inhibition of BRD4-BD1 (unknown origin).
The target of experiment [2] is Histone deacetylase 1 (Homo sapiens, UniProt Q13547). Nature of the experiment: Inhibition of HDAC1 (unknown origin).
For experiment [3], the target named is T1, Bromodomain-containing protein 4. Nature of the experiment: Inhibition of GST-tagged BRD4 (unknown origin) by HTRF assay.
For experiment [4], the target named is T2, Bromodomain testis-specific protein (Homo sapiens, UniProt Q58F21). Nature of the experiment: Inhibition of recombinant BRDT-BD2 (unknown origin) by TR-FRET assay. A general note: TR-FRET usually uses a lanthanide donor and a delayed reading to cut background.
For experiment [5], the target named is T3, Bromodomain-containing protein 3 (Homo sapiens, UniProt Q15059). The experiment can be described thus: Inhibition of recombinant BRD3-BD2 (unknown origin) by TR-FRET assay.
The target in experiment [6] is T4, Bromodomain-containing protein 2 (Homo sapiens, UniProt P25440). Nature of the experiment: Inhibition of recombinant BRD2-BD2 (unknown origin) by TR-FRET assay.
Experiment [7] deals with T3, Bromodomain-containing protein 3. The experiment can be described thus: Inhibition of recombinant BRD3-BD1 (unknown origin) by TR-FRET assay.
The target of experiment [8] is T4, Bromodomain-containing protein 2. The experiment can be described thus: Inhibition of recombinant BRD2-BD1 (unknown origin) by TR-FRET assay.
The target of experiment [9] is T2, Bromodomain testis-specific protein. The experiment can be described thus: Inhibition of recombinant BRDT-BD1 (unknown origin) by TR-FRET assay.
For experiment [10], the target named is Histone deacetylase 3 (Homo sapiens, UniProt O15379). The experiment can be described thus: Inhibition of human HDAC3 using Boc-Lys(Ac)-AMC as substrate by fluorescence based assay.
Experiment [11] concerns the target T1, Bromodomain-containing protein 4. The experiment can be described thus: Inhibition of BRD4-BD2 (unknown origin).
In experiment [12] the target is Histone deacetylase. The experiment can be described thus: Inhibition of HDAC (unknown origin) by ELISA. It counts as protein assay, Homo sapiens.
Experiment [13] concerns the target T1, Bromodomain-containing protein 4.
Description: Inhibition of BRD4 (unknown origin) by ELISA
In experiment [14] the test system is U-937. Nature of the experiment: Cytotoxicity against human U-937 cells assessed as cell viability at 3 uM by MTT assay relative to control. Format: functional. The conditions noted are these: read-out: Activity. (In general: Tetrazolium assays rely on reduction of a dye to a coloured formazan, in cell work by metabolically active cells.)

Chain of Histone deacetylase 1 (Q13547 whole entry): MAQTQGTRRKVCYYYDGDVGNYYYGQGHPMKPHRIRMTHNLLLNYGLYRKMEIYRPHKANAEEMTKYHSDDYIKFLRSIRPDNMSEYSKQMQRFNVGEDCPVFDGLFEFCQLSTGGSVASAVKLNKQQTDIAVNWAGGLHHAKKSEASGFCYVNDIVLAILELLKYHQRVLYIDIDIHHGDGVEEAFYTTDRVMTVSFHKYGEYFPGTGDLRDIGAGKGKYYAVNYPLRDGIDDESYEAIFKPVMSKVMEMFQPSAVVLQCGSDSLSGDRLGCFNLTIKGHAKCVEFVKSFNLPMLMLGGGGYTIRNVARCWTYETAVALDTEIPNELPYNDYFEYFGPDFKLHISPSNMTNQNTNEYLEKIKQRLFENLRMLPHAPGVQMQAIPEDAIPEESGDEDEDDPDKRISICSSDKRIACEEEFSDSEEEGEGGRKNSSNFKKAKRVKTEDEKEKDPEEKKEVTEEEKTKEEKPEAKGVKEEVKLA
T3 sequence (Q15059 whole entry): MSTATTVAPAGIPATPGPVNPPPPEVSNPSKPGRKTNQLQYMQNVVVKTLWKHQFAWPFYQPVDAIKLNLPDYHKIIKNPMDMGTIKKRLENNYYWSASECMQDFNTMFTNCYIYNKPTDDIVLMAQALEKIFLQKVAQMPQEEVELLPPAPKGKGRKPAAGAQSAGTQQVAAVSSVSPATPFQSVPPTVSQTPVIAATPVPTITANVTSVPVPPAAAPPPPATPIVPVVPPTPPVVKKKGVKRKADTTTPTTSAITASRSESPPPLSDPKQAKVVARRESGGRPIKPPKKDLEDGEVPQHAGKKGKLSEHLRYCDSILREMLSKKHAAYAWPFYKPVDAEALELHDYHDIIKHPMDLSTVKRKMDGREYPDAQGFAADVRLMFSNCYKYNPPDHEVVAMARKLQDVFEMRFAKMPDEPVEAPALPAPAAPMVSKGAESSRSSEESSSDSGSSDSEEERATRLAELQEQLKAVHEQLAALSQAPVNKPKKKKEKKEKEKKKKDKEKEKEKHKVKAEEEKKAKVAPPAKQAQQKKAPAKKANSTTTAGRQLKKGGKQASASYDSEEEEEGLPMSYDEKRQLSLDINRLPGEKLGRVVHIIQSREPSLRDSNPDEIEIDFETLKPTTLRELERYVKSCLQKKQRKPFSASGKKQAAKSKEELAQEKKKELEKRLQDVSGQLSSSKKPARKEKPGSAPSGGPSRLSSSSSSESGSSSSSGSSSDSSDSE
T4 sequence (P25440 whole entry): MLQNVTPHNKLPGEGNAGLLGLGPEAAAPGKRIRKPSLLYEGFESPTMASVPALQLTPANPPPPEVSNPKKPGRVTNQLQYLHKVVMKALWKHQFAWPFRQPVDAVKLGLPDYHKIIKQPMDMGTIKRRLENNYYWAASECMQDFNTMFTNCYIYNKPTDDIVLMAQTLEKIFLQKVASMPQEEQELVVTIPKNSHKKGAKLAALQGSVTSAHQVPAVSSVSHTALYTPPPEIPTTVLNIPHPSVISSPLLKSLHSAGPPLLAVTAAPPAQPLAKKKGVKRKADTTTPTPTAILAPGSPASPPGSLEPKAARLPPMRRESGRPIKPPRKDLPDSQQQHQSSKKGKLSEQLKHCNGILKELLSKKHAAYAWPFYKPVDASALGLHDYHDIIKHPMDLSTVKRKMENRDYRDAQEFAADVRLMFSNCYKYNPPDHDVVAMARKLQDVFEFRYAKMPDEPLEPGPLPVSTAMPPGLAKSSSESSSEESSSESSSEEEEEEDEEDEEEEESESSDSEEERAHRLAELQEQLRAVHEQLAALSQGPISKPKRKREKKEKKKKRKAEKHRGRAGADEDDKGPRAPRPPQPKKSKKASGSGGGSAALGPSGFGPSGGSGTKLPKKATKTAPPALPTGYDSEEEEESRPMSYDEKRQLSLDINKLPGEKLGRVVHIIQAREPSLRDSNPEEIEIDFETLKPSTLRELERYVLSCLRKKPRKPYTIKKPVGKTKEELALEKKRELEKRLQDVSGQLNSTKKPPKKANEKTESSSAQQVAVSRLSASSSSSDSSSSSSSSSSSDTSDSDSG
Chain of Histone deacetylase 3 (O15379 whole entry): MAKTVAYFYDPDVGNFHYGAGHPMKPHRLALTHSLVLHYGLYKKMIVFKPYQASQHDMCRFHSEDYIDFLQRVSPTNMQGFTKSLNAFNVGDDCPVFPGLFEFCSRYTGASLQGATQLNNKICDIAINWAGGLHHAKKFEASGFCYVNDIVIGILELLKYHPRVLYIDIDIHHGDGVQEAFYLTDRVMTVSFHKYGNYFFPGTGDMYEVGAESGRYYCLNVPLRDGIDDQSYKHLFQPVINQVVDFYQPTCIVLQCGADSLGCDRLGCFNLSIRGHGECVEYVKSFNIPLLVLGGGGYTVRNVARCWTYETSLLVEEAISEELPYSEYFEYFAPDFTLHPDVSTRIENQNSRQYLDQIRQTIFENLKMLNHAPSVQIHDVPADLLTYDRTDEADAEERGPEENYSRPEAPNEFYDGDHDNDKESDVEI

Take `CC(=O)N1c2ccc(-c3ccc(NC(=O)CCCCCCC(=O)NO)cc3)cc2[C@H](NC(=O)OC(C)C)C[C@@H]1C`: the figures for the IC50 in experiment [1] and in [2] were 0.25 µM and 0.05 µM, respectively.
`COC(c1c(F)cccc1Cl)c1c[nH]c2ncc(-c3c(C)noc3C)cc12` (stereo not drawn): the half-inhibitory concentration (IC50) (in general, the concentration that gives 50% inhibition) in experiment [3] was < 1 µM.
Turning to `Cc1sc2c(c1C)C(c1ccc(Cl)cc1)=N[C@@H](CC(=O)Nc1ccc(C(=O)NO)cc1)c1nnc(C)n1-2`, the half-maximal inhibitory concentration (IC50) in experiment [4], in [5], in [6], in experiment [7], in experiment [8] and in experiment [9] was 0.011 µM each time.
On to `O=C(CCCCCCn1cc(Cc2ccccc2)c2ccccc21)NO`, for which the IC50 in [10] was found to be 0.06 µM.
Regarding `Cc1sc2c(c1C)C(c1ccc(Cl)cc1)=N[C@@H](CC(=O)NCc1ccc(/C=C/C(=O)NO)cc1)c1nnc(C)n1-2`, the IC50 in experiment [1] is 1.35 µM; in experiment [2], > 20 µM; in experiment [11], 1.58 µM.
As to `Cc1sc2c(c1C)C(c1ccc(Cl)cc1)=N[C@@H](CC(=O)Nc1ccc(NC(=O)CCCCCCC(=O)NO)cc1)c1nnc(C)n1-2`, the figures for the concentration for half-maximal inhibition (IC50) in experiment [1], in experiment [2] and in experiment [11] were 4.53 µM, 1.11 µM and 11 µM, respectively.
`Cc1sc2c(c1C)C(c1ccc(Cl)cc1)=N[C@@H](CC(=O)Nc1ccc(C(=O)Nc3ccccc3N)cc1)c1nnc(C)n1-2`: the IC50 in experiment [1] stood at 0.72 µM; in [2] it was 0.29 µM; in experiment [11], 0.074 µM.
Take `Cc1sc2c(c1C)C(c1ccc(Cl)cc1)=N[C@@H](CC(=O)NCCCC(=O)Nc1ccccc1N)c1nnc(C)n1-2`: the values for the concentration for half-maximal inhibition (IC50) in experiment [12] and in [13] were 0.03124 µM and 0.0296 µM, respectively. The viability at 3 µM in [14] was 16.1%.
Take `O=C(CCCCCCC(=O)Nc1ccccc1)NO` [VORINOSTAT]: half-maximal inhibition in experiment [13] (IC50) was put at 0.0431 µM.
